The results in this text go back to PubChem BioAssay AID2060350 (Molecular Pharmacology Branch, DTP, NCI, 2025).

Values joined by “and” are separate entries in the source; they are usually repeats but may differ in a detail not shown here. Identical values can stand only once.

The subject of this assay is PDC 521955-158-R6-J3 spheroids, viability. Description: Anticancer human tumor 521955-158-R6-J3-PDC patient-derived pancreatic carcinoma cell line growth inhibition [TAK]. Conditions: spheroids with HUVEC and MSC; for viability, T/C: stronger effect = lower value. Put shortly: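 Spheroids of 60% malignant cells, 25% HUVEC and 15% hMSC were exposed to targeted agents combined with TAK-243 or ipatasertib. Concentrations started at or near clinical Cmax (10 microM if unknown) and descended in half-log steps.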

[1] abbreviates: curve of first compound, second compound 0.3 µM.
The mark [2] stands for this setting: curve of first compound, second compound 0.949 µM.
The mark [3] stands for this setting: curve of first compound, second compound 3 µM.
[4] abbreviates: curve of first compound, second compound 9.49 µM.
Setting [5] is: curve of first compound, second compound 30 µM.
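Further: spheroids exposed to drugs for 7 days before readout.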
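Wherever viability, T/C is given: 100% = DMSO vehicle control viability.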

For `Cn1cnc2c(F)c(Nc3ccc(Br)cc3Cl)c(C(=O)NOCCO)cc21` + CC(C)NCC(C(=O)N1CCN(c2ncnc3c2C(C)CC3O)CC1)c1ccc(Cl)cc1, the IC50 runs as follows: under setting [1], 326 nM; under setting [2], 176 nM; under setting [3], 324 nM; under setting [4], 141 nM; under setting [5], 186 nM. In addition, the viability, T/C was 66.8% (second compound 0.3 µM, first compound 0.00949 µM); 60.1% (second compound 0.3 µM, first compound 0.03 µM); 54.6% (second compound 0.3 µM, first compound 0.0949 µM); 47.5% (second compound 0.3 µM, first compound 0.3 µM); 51.8% (second compound 0.3 µM, first compound 0.949 µM); 38.9% (second compound 0.3 µM, first compound 3 µM). The viability, T/C (second compound 0.949 µM, first compound 0.00949 µM) is 69.6%; the viability, T/C (second compound 0.949 µM, first compound 0.03 µM) was 58.4%; the viability, T/C (second compound 0.949 µM, first compound 0.0949 µM) was 48.3%; the viability, T/C (second compound 0.949 µM, first compound 0.3 µM) is 49.7%; the viability, T/C (second compound 0.949 µM, first compound 0.949 µM) is 43.8%; the viability, T/C (second compound 0.949 µM, first compound 3 µM) was 25.7%. Moreover, the viability, T/C was 68.2% (second compound 3 µM, first compound 0.00949 µM); 60.9% (second compound 3 µM, first compound 0.03 µM); 52.4% (second compound 3 µM, first compound 0.0949 µM); 51.8% (second compound 3 µM, first compound 0.3 µM); 43% (second compound 3 µM, first compound 0.949 µM); 21.6% (second compound 3 µM, first compound 3 µM). The viability, T/C was 66.8% (second compound 9.49 µM, first compound 0.00949 µM); 55.7% (second compound 9.49 µM, first compound 0.03 µM); 47.8% (second compound 9.49 µM, first compound 0.0949 µM); 49.5% (second compound 9.49 µM, first compound 0.3 µM); 33.9% (second compound 9.49 µM, first compound 0.949 µM); 15.8% (second compound 9.49 µM, first compound 3 µM). Besides, the viability, T/C is, setting by setting: (second compound 30 µM, first compound 0.00949 µM) 64.3%; (second compound 30 µM, first compound 0.03 µM) 56.7%; (second compound 30 µM, first compound 0.0949 µM) 49.6%; (second compound 30 µM, first compound 0.3 µM) 50.1%; (second compound 30 µM, first compound 0.949 µM) 35.8%; (second compound 30 µM, first compound 3 µM) 15.1%.
As to `Cn1cnc2c(F)c(Nc3ccc(Br)cc3Cl)c(C(=O)NOCCO)cc21`, the viability, T/C runs as follows: (compound 0.00949 µM) 99.2% and 99.6%; (compound 0.03 µM) 88.9% and 88%; (compound 0.0949 µM) 77.6% and 83%; (compound 0.3 µM) 85.5% and 82.2%; (compound 0.949 µM) 56.9% and 70.8%; (compound 3 µM) 41.5% and 53.7%. The 50% inhibitory concentration (IC50) (curve of compound) is 1800 nM and > 3000 nM.
Consider `CC(C)(C)c1nc(-c2cccc(NS(=O)(=O)c3c(F)cccc3F)c2F)c(-c2ccnc(N)n2)s1` + CC(C)NCC(C(=O)N1CCN(c2ncnc3c2C(C)CC3O)CC1)c1ccc(Cl)cc1, for which the half-maximal inhibitory concentration (IC50) reads like this: under setting [1], above 10000 nM; under setting [2], above 10000 nM; under setting [3], above 10000 nM; under setting [4], above 10000 nM; under setting [5], above 10000 nM. For the same molecule, the viability, T/C runs as follows: (second compound 0.3 µM, first compound 0.0316 µM) 104%; (second compound 0.3 µM, first compound 0.1 µM) 128%; (second compound 0.3 µM, first compound 0.316 µM) 136%; (second compound 0.3 µM, first compound 1 µM) 129%; (second compound 0.3 µM, first compound 3.16 µM) 107%; (second compound 0.3 µM, first compound 10 µM) 107%. The viability, T/C (second compound 0.949 µM, first compound 0.0316 µM) is 98.7%; the viability, T/C (second compound 0.949 µM, first compound 0.1 µM) is 123%; the viability, T/C (second compound 0.949 µM, first compound 0.316 µM) was 136%; the viability, T/C (second compound 0.949 µM, first compound 1 µM) is 129%; the viability, T/C (second compound 0.949 µM, first compound 3.16 µM) is 105%; the viability, T/C (second compound 0.949 µM, first compound 10 µM) was 85.8%. For the same molecule, the viability, T/C (second compound 3 µM, first compound 0.0316 µM) was 91.9%; the viability, T/C (second compound 3 µM, first compound 0.1 µM) is 110%; the viability, T/C (second compound 3 µM, first compound 0.316 µM) is 117%; the viability, T/C (second compound 3 µM, first compound 1 µM) was 119%; the viability, T/C (second compound 3 µM, first compound 3.16 µM) was 100%; the viability, T/C (second compound 3 µM, first compound 10 µM) is 73.8%. For the same molecule, the viability, T/C is 84.2% (second compound 9.49 µM, first compound 0.0316 µM); 97.4% (second compound 9.49 µM, first compound 0.1 µM); 118% (second compound 9.49 µM, first compound 0.316 µM); 119% (second compound 9.49 µM, first compound 1 µM); 94.8% (second compound 9.49 µM, first compound 3.16 µM); 65% (second compound 9.49 µM, first compound 10 µM). In addition, the viability, T/C is, setting by setting: (second compound 30 µM, first compound 0.0316 µM) 87.9%; (second compound 30 µM, first compound 0.1 µM) 83.5%; (second compound 30 µM, first compound 0.316 µM) 95.5%; (second compound 30 µM, first compound 1 µM) 83.8%; (second compound 30 µM, first compound 3.16 µM) 73.2%; (second compound 30 µM, first compound 10 µM) 68.6%.
As to `COC1CC2CCC(C)C(O)(O2)C(=O)C(=O)N2CCCCC2C(=O)OC(C(C)CC2CCC(OCCO)C(OC)C2)CC(=O)C(C)C=C(C)C(O)C(OC)C(=O)C(C)CC(C)C=CC=CC=C1C` (stereo unspecified), the viability, T/C (compound 0.000316 µM) is 93.2% and 99%; the viability, T/C (compound 0.001 µM) is 107% and 78.7%; the viability, T/C (compound 0.00316 µM) is 105% and 85.4%; the viability, T/C (compound 0.01 µM) is 100% and 94.5%; the viability, T/C (compound 0.0316 µM) was 84.9% and 90.9%; the viability, T/C (compound 0.1 µM) was 84.3% and 82.4%. Also, the IC50 (curve of compound) was above 100 nM.
For the molecule `CC(=O)Nc1cccc(-n2c(=O)n(C3CC3)c(=O)c3c(Nc4ccc(I)cc4F)n(C)c(=O)c(C)c32)c1`, the viability, T/C by setting is: (compound 94.9 pM) 98.2% and 112%; (compound 0.0003 µM) 100% and 90.8%; (compound 0.000949 µM) 98.2% and 92.1%; (compound 0.003 µM) 94.2% and 82%; (compound 0.00949 µM) 72.4% and 68.3%; (compound 0.03 µM) 47% and 47.1%. In addition, the half-inhibitory concentration (IC50) (curve of compound) is 26.2 nM and 29.5 nM.

For orientation: IC50 means the midpoint of a concentration-inhibition curve. As usually defined, the viability, T/C is the result in the treated group divided by that in the control group, in per cent.
